Patent US20030124566A1, “5-Hydroxytryptamine transporter gene polymorphisms” (priority 2000, published 2003)
Structures can show the parent of a compound that is named as a salt.

Tests used:
[1] = test system: female human subjects with IBS (non-constipated); assay: Double-blind, placebo controlled clinical trials of alosetron for the treatment of IBS, response stratified by 5HTT genotype; format: in vivo; conditions: for proportion of patients achieving response (relief of IBS symptoms): relief during six weeks of twelve week treatment
From the text: FIG. 1 is a graph based on data collected from female patients enrolled in clinical trials of alosetron for the treatment of IBS. The study population was comprised of non-constipated individuals with IBS. The subjects were divided into 5HTT genotypes. Of the 219 subjects, 71 (32.4%) were del/del 5HTT, 75 (34.2%) were del/ins 5HTT and 73 (33.3%) were ins/ins 5HTT. […] “Response” was defined as relief of IBS symptoms (abdominal pain and discomfort) during six weeks of a twelve week treatment study. Two hundred and nineteen subjects, received either alosetron (102 subjects) or matched placebo (117 subjects). The proportion of patients achieving response following treatment with alosetron was 68% (21/31) for del/del 5HTT, 64% (21/33) for del/ins 5HTT and 58% (22/38) for ins/ins 5HTT. The proportion of patients achieving response following treatment with placebo was 58% (23/40) for del/del 5HTT, 38% (16/42) for del/ins 5HTT and 34% (12/35) for ins/ins 5HTT.
FIG. 2 compares, among 5HTT genotypes, the percentage of alosetron-treated subjects who reported constipation. Of the 102 alosetron treated subjects, the proportion of subjects reporting constipation was 13% (4/31) for del/del 5HTT, 30% (10/33) for del/ins 5HTT and 21% (8/38) for ins/ins 5HTT.
Genetic samples were obtained from 219 female human subjects enrolled in clinical trials of alosetron for the treatment of IBS. Using PCR technology as is known in the art, an insertion/deletion genetic marker was assayed in the 5-hydroxytryptamine transporter gene (5HTT gene). The alleles were labeled as “del” (deletion) or “ins” (insertion) resulting in three possible genotypes (del/del; del/ins or ins/ins).
The subjects' response to alosetron in the clinical trial setting was reviewed and correlated with genotype. In the double-blind, placebo controlled clinical trials, subjects received 12 weeks of treatment with either alosetron or a placebo. A favorable response to alosetron was when a subject reported relief of IBS symptoms during six weeks of the twelve week trial. The incidence of various other effects, including constipation, was also recorded.
The response of subjects to treatment with alosetron in the clinical trial was stratified according to genotype.
The occurrence of constipation during alosetron treatment in the clinical trial was stratified according to genotype. […] In del/del subjects (n=31), 4 (13%) reported constipation; in del/ins subjects (n=33), 10 (30%) reported constipation; and in ins/ins subjects (n=38), 8 (21)% reported constipation (FIG. 2).

[2] = test system: patients with Irritable Bowel Syndrome (IBS); conditions: double-blind, placebo controlled studies (literature); cited from earlier work

For `Cc1[nH]cnc1CN1CCc2c(c3ccccc3n2C)C1=O` [alosetron, Alosetron hydrochloride], the “proportion of subjects reporting constipation” value ([1]; del/del 5HTT genotype, alosetron-treated, 4/31 subjects) was 13%, the “proportion of patients achieving response (relief of IBS symptoms)” value (“proportion … (relief of IBS symptoms)” for short) ([1]; del/del 5HTT genotype, 21/31 subjects) was 68% and the “proportion of subjects reporting constipation” value ([1]; del/ins 5HTT genotype, alosetron-treated, 10/33 subjects) was 30%. For the same molecule, the “proportion … (relief of IBS symptoms)” value ([1]; del/ins 5HTT genotype, 21/33 subjects) was 64%, the “relief of IBS symptoms compared with placebo” value ([1]; in each of the three 5HTT genotypes) was “more effective than placebo” and the “proportion of subjects reporting constipation” value ([1]; ins/ins 5HTT genotype, alosetron-treated, 8/38 subjects) was 21%. For the same molecule, the “proportion … (relief of IBS symptoms)” value ([1]; ins/ins 5HTT genotype, 22/38 subjects) was 58%, the “proportion of subjects reporting constipation” value ([1]; total group of subjects receiving alosetron (n=102)) was 21% and the “effect on pain and bowel function in IBS patients” value [2] was “reduce pain and improve bowel function”.
